# pIC50: −log10 of the molar value.
# System: Tumor-initiating cells (NB12)
# Assay: IC50 determination, alamarBlue cell survival/growth
# Format: cell-based, human
# Conditions: 10 serial dilutions 5 μM to 9 nM
# Protocol: Tumor-initiating cells and normal cells were treated with 10 serial dilutions of compounds (5 μM to 9 nM). […] (FS90=normal cells; NB12=tumor-initiating cells).
# Tumor-initiating cells (NB12) and normal cells (FS90) were treated with 10 serial dilutions of compounds ranging from 5 μM to 9 nM. […] IC50 values for NB12 are given above each plot.
# IC50 values for NB12 and FS90 are given beside each plot.
# For each cell type, cells were passaged 5 days prior to screening.
substance,measurement,value
"Dequalinium analog, C-14 linker",pIC50,5.95
